Data on one molecule can be found in ChEMBL document CHEMBL3608274, “Design and synthesis of constrained analogs of LCRF-0004 as potent RON tyrosine kinase inhibitors” (Bioorg Med Chem Lett, 2015).

Molecules are shown by their SMILES.

The target of assay [1] is Macrophage-stimulating protein receptor (Homo sapiens, UniProt Q04912). Kind of assay: Inhibition of human RON.
Assay [2] has as its target Hepatocyte growth factor receptor (Homo sapiens, UniProt P08581). Kind of assay: Inhibition of human c-Met.

Sequence of Hepatocyte growth factor receptor (P08581 whole entry): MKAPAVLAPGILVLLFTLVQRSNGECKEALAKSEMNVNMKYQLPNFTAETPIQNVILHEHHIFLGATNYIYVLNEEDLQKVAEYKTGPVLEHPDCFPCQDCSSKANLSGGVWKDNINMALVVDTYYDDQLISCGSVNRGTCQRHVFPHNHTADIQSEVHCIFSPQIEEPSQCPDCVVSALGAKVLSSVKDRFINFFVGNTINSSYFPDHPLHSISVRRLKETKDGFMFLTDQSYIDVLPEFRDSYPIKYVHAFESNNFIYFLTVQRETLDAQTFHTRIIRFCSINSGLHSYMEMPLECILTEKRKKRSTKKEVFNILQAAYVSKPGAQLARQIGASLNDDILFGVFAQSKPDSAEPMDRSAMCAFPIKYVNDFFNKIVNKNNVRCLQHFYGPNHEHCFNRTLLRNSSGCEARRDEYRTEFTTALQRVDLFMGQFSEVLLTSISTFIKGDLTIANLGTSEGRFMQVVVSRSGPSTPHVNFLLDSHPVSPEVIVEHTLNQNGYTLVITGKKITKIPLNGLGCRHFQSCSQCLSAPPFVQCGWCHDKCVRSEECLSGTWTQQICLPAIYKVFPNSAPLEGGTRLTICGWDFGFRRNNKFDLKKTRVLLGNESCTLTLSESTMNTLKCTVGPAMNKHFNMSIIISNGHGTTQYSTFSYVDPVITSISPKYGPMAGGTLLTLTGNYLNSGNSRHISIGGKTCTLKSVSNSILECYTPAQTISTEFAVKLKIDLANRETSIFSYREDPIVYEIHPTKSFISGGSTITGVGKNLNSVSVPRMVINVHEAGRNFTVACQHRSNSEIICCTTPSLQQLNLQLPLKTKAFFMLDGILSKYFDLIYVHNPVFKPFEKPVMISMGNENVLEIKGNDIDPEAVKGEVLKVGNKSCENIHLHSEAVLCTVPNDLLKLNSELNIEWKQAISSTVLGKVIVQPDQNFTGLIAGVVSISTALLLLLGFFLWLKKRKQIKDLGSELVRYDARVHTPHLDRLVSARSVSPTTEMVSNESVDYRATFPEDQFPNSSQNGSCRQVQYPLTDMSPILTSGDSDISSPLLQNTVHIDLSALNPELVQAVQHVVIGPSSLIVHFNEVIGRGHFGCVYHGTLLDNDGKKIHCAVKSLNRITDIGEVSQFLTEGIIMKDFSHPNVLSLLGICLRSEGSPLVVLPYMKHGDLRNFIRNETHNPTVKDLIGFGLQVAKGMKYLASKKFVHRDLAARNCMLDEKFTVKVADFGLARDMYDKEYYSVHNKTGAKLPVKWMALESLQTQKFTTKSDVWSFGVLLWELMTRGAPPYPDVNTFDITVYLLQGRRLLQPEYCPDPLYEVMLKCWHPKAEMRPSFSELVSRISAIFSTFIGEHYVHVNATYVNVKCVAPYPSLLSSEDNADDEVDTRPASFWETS
Sequence of Macrophage-stimulating protein receptor (Q04912 25-304 limits assumed): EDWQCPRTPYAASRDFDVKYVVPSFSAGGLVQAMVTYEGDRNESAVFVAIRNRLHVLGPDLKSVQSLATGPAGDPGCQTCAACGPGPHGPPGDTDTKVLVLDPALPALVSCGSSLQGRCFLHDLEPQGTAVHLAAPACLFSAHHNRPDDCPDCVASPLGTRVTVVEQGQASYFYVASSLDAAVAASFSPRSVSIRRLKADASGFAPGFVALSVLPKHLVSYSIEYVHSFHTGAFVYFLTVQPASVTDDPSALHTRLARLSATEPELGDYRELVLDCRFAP
Sequence of Macrophage-stimulating protein receptor (Q04912 310-1400 limits assumed): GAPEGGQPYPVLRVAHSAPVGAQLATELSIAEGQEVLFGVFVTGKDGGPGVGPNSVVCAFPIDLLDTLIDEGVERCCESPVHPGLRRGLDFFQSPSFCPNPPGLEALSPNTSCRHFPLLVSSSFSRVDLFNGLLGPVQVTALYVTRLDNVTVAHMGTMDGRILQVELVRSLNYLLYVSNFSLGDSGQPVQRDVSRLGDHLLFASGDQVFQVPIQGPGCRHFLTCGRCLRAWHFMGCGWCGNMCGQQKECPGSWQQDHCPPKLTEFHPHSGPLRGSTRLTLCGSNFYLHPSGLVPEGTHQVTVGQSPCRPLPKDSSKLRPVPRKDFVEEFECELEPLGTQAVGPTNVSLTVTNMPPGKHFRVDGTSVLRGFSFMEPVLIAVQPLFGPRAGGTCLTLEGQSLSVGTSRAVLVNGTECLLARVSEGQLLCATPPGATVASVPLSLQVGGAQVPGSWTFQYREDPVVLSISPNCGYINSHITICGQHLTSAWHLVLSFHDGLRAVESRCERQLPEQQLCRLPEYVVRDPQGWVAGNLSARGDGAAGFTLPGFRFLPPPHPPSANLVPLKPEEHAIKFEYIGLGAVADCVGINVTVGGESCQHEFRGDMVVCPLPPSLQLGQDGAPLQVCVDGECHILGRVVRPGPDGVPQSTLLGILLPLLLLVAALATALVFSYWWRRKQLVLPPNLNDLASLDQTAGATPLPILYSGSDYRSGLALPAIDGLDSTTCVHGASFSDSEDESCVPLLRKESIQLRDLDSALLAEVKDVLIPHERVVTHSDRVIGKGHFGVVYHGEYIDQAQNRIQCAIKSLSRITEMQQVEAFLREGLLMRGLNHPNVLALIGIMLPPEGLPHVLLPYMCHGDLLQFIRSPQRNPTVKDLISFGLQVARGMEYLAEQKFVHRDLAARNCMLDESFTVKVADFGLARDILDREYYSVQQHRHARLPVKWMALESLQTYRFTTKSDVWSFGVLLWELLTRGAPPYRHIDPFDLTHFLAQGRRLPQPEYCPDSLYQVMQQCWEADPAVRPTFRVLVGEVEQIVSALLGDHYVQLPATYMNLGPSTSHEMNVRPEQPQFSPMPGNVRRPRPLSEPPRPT

`Cn1cnc(-c2cc3nccc(Oc4ccc(NC(=O)c5cnn(-c6ccccc6)c5C(F)(F)F)cc4F)c3s2)c1`: the 50% inhibitory concentration (IC50) in assay [1] was 10 nM; in assay [2] it was 12 nM.

The term IC50 denotes the concentration at which inhibition is half-maximal. Low values mean greater potency, high ones weaker potency.
